According to ChEMBL document CHEMBL3399921, “Novel 2-(2-phenalkyl)-1H-benzo[d]imidazoles as antitubercular agents. Synthesis, biological evaluation and structure-activity relationship” (Bioorg Med Chem, 2015):
In brackets after ≈: the same amount, converted by molar mass.

What was measured:
[1] = tested on: Mycobacterium tuberculosis; assay: Tuberculostatic activity against Mycobacterium tuberculosis H37Rv by two-fold classical test-tube method; type: functional
[2] = tested on: Mycobacterium tuberculosis; assay: Tuberculostatic activity against Mycobacterium tuberculosis Spec. 192 by two-fold classical test-tube method; type: functional
[3] = tested on: Mycobacterium tuberculosis; assay: Tuberculostatic activity against Mycobacterium tuberculosis Spec. 210 by two-fold classical test-tube method; type: functional
[4] = Cytotoxicity against neonatal HDF cells after 7 days by MTT/SRB assay; type: cell-based; details: Homo sapiens, 168 h
[5] = Cytotoxicity against HEK cells after 7 days by MTT/SRB assay; type: cell-based; details: Homo sapiens, HEK293, 168 h
[6] = Cytotoxicity against mouse B16F10 cells after 7 days by MTT/SRB assay; type: cell-based; details: B16-F10, 168 h
[7] = Selectivity ratio of IC50 for mouse B16F10 cells to MIC for Mycobacterium tuberculosis Spec. 210; type: ADME, cell-based, B16-F10
[8] = Selectivity ratio of IC50 for neonatal HDF cells to MIC for Mycobacterium tuberculosis Spec. 192; type: ADME, cell-based; details: human
[9] = Selectivity ratio of IC50 for neonatal HDF cells to MIC for Mycobacterium tuberculosis Spec. 210; type: ADME, cell-based; details: human
[10] = Selectivity ratio of IC50 for mouse B16F10 cells to MIC for Mycobacterium tuberculosis Spec. 192; type: ADME, cell-based, B16-F10
[11] = Selectivity ratio of IC50 for mouse B16F10 cells to MIC for Mycobacterium tuberculosis H37Rv; type: ADME, cell-based, B16-F10
[12] = Selectivity ratio of IC50 for neonatal HDF cells to MIC for Mycobacterium tuberculosis H37Rv; type: ADME, cell-based; details: human

Compound: Cc1cc2nc(CCc3cc(Cl)cc(Cl)c3)[nH]c2cc1C
- MIC [1]: 2.5 µM (≈ 0.798 µg/mL)
- MIC [2]: 5 µM (≈ 1.6 µg/mL)
- MIC [3]: 5 µM (≈ 1.6 µg/mL)
- IC50 [4]: 58 µM
- IC50 [5]: 7.8 µM
- IC50 [6]: 28 µM
- selectivity ratio [7]: 6
- selectivity ratio [8]: > 11
- selectivity ratio [9]: > 11
- selectivity ratio [10]: 6

Compound: Nc1c(NC(=O)CCc2ccccc2)cc(Cl)cc1[N+](=O)[O-]
- MIC [1]: 320 µM (≈ 102 µg/mL)
- MIC [2]: 320 µM (≈ 102 µg/mL)
- MIC [3]: 320 µM (≈ 102 µg/mL)

Compound: Nc1c(NC(=O)/C=C/c2ccccc2)cc(Cl)cc1[N+](=O)[O-]
- MIC [1]: 320 µM (≈ 102 µg/mL)
- MIC [2]: 320 µM (≈ 102 µg/mL)
- MIC [3]: 320 µM (≈ 102 µg/mL)

Compound: Nc1c(NC(=O)CCc2cc(Cl)cc(Cl)c2)cc(Cl)cc1[N+](=O)[O-]
- MIC [1]: 8 µM (≈ 3.11 µg/mL)
- MIC [2]: 8 µM (≈ 3.11 µg/mL)
- MIC [3]: 65 µM (≈ 25.3 µg/mL)
- IC50 [4]: 80 µM
- IC50 [5]: 5.1 µM
- IC50 [6]: 59 µM
- selectivity ratio [8]: 10
- selectivity ratio [11]: 7.5
- selectivity ratio [10]: 7.5
- selectivity ratio [12]: 10

Compound: O=[N+]([O-])c1cc(Cl)cc2[nH]c(CCc3ccccc3)nc12
- MIC [1]: 330 µM (≈ 99.6 µg/mL)
- MIC [2]: 330 µM (≈ 99.6 µg/mL)
- MIC [3]: 330 µM (≈ 99.6 µg/mL)

Compound: O=[N+]([O-])c1cc(Cl)cc2[nH]c(/C=C/c3ccccc3)nc12
- MIC [1]: 170 µM (≈ 51 µg/mL)
- MIC [2]: 170 µM (≈ 51 µg/mL)
- MIC [3]: 340 µM (≈ 102 µg/mL)

Compound: O=[N+]([O-])c1cc(Cl)cc2[nH]c(CCc3cc(Cl)cc(Cl)c3)nc12
- MIC [1]: 68 µM (≈ 25.2 µg/mL)
- MIC [2]: 68 µM (≈ 25.2 µg/mL)
- MIC [3]: 271 µM (≈ 100 µg/mL)

Compound: c1ccc(CCc2nc3cc4ccccc4cc3[nH]2)cc1
- MIC [1]: 370 µM (≈ 101 µg/mL)
- MIC [2]: 370 µM (≈ 101 µg/mL)
- MIC [3]: 370 µM (≈ 101 µg/mL)

Compound: C(=C\c1nc2cc3ccccc3cc2[nH]1)/c1ccccc1
- MIC [1]: 93 µM (≈ 25.1 µg/mL)
- MIC [2]: 93 µM (≈ 25.1 µg/mL)
- MIC [3]: 93 µM (≈ 25.1 µg/mL)

Compound: Clc1cc(Cl)cc(CCc2nc3cc4ccccc4cc3[nH]2)c1
- MIC [1]: 18 µM (≈ 6.14 µg/mL)
- MIC [2]: 18 µM (≈ 6.14 µg/mL)
- MIC [3]: 18 µM (≈ 6.14 µg/mL)

Compound: Cc1cc2nc(CCc3ccccc3)[nH]c2cc1C
- MIC [1]: 6.3 µM (≈ 1.58 µg/mL)
- MIC [2]: 6.3 µM (≈ 1.58 µg/mL)
- MIC [3]: 6.3 µM (≈ 1.58 µg/mL)
- IC50 [4]: 7.9 µM
- IC50 [5]: 2.5 µM
- IC50 [6]: 3.9 µM

Compound: Cc1cc2nc(/C=C/c3ccccc3)[nH]c2cc1C
- MIC [1]: 25 µM (≈ 6.21 µg/mL)
- MIC [2]: 13 µM (≈ 3.23 µg/mL)
- MIC [3]: 25 µM (≈ 6.21 µg/mL)

Compound: Fc1ccc2[nH]c(CCc3ccccc3)nc2c1
- MIC [1]: 104 µM (≈ 25 µg/mL)
- MIC [2]: 208 µM (≈ 50 µg/mL)
- MIC [3]: 208 µM (≈ 50 µg/mL)

Compound: Fc1ccc2[nH]c(/C=C/c3ccccc3)nc2c1
- MIC [1]: 210 µM (≈ 50 µg/mL)
- MIC [2]: 210 µM (≈ 50 µg/mL)
- MIC [3]: 105 µM (≈ 25 µg/mL)

Compound: Fc1ccc2[nH]c(CCc3cc(Cl)cc(Cl)c3)nc2c1
- MIC [1]: 320 µM (≈ 98.9 µg/mL)
- MIC [2]: 320 µM (≈ 98.9 µg/mL)
- MIC [3]: 320 µM (≈ 98.9 µg/mL)

Compound: Cc1cc2nc(CCc3ccccc3)n(S(C)(=O)=O)c2cc1C
- MIC [1]: 76 µM (≈ 25 µg/mL)
- MIC [2]: 76 µM (≈ 25 µg/mL)
- MIC [3]: 76 µM (≈ 25 µg/mL)

Compound: Cc1cc2nc(/C=C/c3ccccc3)n(S(C)(=O)=O)c2cc1C
- MIC [1]: 310 µM (≈ 101 µg/mL)
- MIC [2]: 310 µM (≈ 101 µg/mL)
- MIC [3]: 310 µM (≈ 101 µg/mL)

Compound: Cc1cc2nc(CCc3cc(Cl)cc(Cl)c3)n(S(C)(=O)=O)c2cc1C
- MIC [1]: 32 µM (≈ 12.7 µg/mL)
- MIC [2]: 63 µM (≈ 25 µg/mL)
- MIC [3]: 32 µM (≈ 12.7 µg/mL)

Compound: CS(=O)(=O)n1c(CCc2ccccc2)nc2cc(F)ccc21
- MIC [1]: 314 µM (≈ 100 µg/mL)
- MIC [2]: 314 µM (≈ 100 µg/mL)
- MIC [3]: 314 µM (≈ 100 µg/mL)

Compound: CS(=O)(=O)n1c(/C=C/c2ccccc2)nc2cc(F)ccc21
- MIC [1]: 158 µM (≈ 50 µg/mL)
- MIC [2]: 158 µM (≈ 50 µg/mL)
- MIC [3]: 158 µM (≈ 50 µg/mL)

Compound: CS(=O)(=O)n1c(/C=C/c2cc(Cl)cc(Cl)c2)nc2cc(F)ccc21
- MIC [1]: 130 µM (≈ 50.1 µg/mL)
- MIC [2]: 259 µM (≈ 99.8 µg/mL)
- MIC [3]: 130 µM (≈ 50.1 µg/mL)

Compound: Cc1cc2nc(CCc3ccccc3)n(S(=O)(=O)c3ccccc3)c2cc1C
- MIC [1]: 128 µM (≈ 50 µg/mL)
- MIC [2]: 64 µM (≈ 25 µg/mL)
- MIC [3]: 128 µM (≈ 50 µg/mL)

Compound: Cc1cc2nc(/C=C/c3ccccc3)n(S(=O)(=O)c3ccccc3)c2cc1C
- MIC [1]: 258 µM (≈ 100 µg/mL)
- MIC [2]: 258 µM (≈ 100 µg/mL)
- MIC [3]: 258 µM (≈ 100 µg/mL)

Compound: Cc1cc2nc(CCc3cc(Cl)cc(Cl)c3)n(S(=O)(=O)c3ccccc3)c2cc1C
- MIC [1]: 55 µM (≈ 25.3 µg/mL)
- MIC [2]: 55 µM (≈ 25.3 µg/mL)
- MIC [3]: 55 µM (≈ 25.3 µg/mL)

Compound: O=S(=O)(c1ccccc1)n1c(CCc2ccccc2)nc2cc(F)ccc21
- MIC [1]: 263 µM (≈ 100 µg/mL)
- MIC [2]: 263 µM (≈ 100 µg/mL)
- MIC [3]: 263 µM (≈ 100 µg/mL)

Compound: O=S(=O)(c1ccccc1)n1c(/C=C/c2ccccc2)nc2cc(F)ccc21
- MIC [1]: 132 µM (≈ 50 µg/mL)
- MIC [2]: 132 µM (≈ 50 µg/mL)
- MIC [3]: 264 µM (≈ 99.9 µg/mL)

Compound: O=S(=O)(c1ccccc1)n1c(CCc2cc(Cl)cc(Cl)c2)nc2cc(F)ccc21
- MIC [1]: 56 µM (≈ 25.2 µg/mL)
- MIC [2]: 112 µM (≈ 50.3 µg/mL)
- MIC [3]: 56 µM (≈ 25.2 µg/mL)

Compound: NNC(=O)c1ccncc1 [ISONIAZID]
- MIC [1]: 91 µM (≈ 12.5 µg/mL)
- MIC [2]: 91 µM (≈ 12.5 µg/mL)
- MIC [3]: 182 µM (≈ 25 µg/mL)

Compound: NC(=O)c1cnccn1 [PYRAZINAMIDE]
- MIC [1]: 203 µM (≈ 25 µg/mL)
- MIC [2]: 203 µM (≈ 25 µg/mL)
- MIC [3]: 3250 µM (≈ 400 µg/mL)

Compound: CO[C@H]1/C=C/O[C@@]2(C)Oc3c(C)c(O)c4c(O)c(c(/C=N/N5CCN(C)CC5)c(O)c4c3C2=O)NC(=O)/C(C)=C\C=C\[C@H](C)[C@H](O)[C@@H](C)[C@@H](O)[C@@H](C)[C@H](OC(C)=O)[C@@H]1C [RIFAMPIN]
- MIC [1]: 1.4 µM (≈ 1.15 µg/mL)
- MIC [2]: 1.4 µM (≈ 1.15 µg/mL)
- MIC [3]: 2.8 µM (≈ 2.3 µg/mL)
